Data on four molecules can be found in ChEMBL document CHEMBL1142149, “In vitro activities of the lipopeptides palmitoyl (Pal)-Lys-Lys-NH(2) and Pal-Lys-Lys alone and in combination with antimicrobial agents against multiresistant gram-positive cocci” (2007).

SMILES strings stand for the structures. Converted amounts (≈) assume the structure as drawn.

Holding throughout (assay type): functional
Test [1] has as its system Staphylococcus aureus. The test can be described thus: Antimicrobial activity against methicillin-susceptible Staphylococcus aureus ATCC 29213. To be noted: for MIC50 / MIC90: Staphylococcus aureus, ATCC 29213.
For test [2], the system named is Prescottella equi. The test can be described thus: Antimicrobial activity against Rhodococcus equi ATCC 6939. To be noted: for MIC50 / MIC90: Rhodococcus (subgen. Prescottella) equi, ATCC 6939.
The test system of test [3] is Enterococcus faecalis. Put plainly: Antimicrobial activity against vancomycin-resistant Enterococcus faecalis ATCC 51299. To be noted: for MIC50 / MIC90: Enterococcus faecalis, ATCC 51299.
In test [4] the test system is Enterococcus faecalis. Put plainly: Antimicrobial activity against vancomycin-susceptible Enterococcus faecalis ATCC 29212. To be noted: for MIC50 / MIC90: Enterococcus faecalis, ATCC 29212.
Test [5] deals with Staphylococcus aureus. Put plainly: Antimicrobial activity against methicillin-resistant Staphylococcus aureus ATCC 43300. To be noted: for MIC50 / MIC90: Staphylococcus aureus, ATCC 43300.
Test [6] concerns Streptococcus pyogenes. Put plainly: Antimicrobial activity against Streptococcus pyogenes ATCC 19615. To be noted: for MIC50 / MIC90: Streptococcus pyogenes, ATCC 19615.

For `CC[C@H]1OC(=O)[C@H](C)[C@@H](O[C@H]2C[C@@](C)(OC)[C@@H](O)[C@H](C)O2)[C@H](C)[C@@H](O[C@@H]2O[C@H](C)C[C@H](N(C)C)[C@H]2O)[C@](C)(O)C[C@@H](C)C(=O)[C@H](C)[C@@H](O)[C@]1(C)O` [ERYTHROMYCIN], the MBC50 is 16 µg/mL (≈ 21.8 µM) in test [1]; 32 µg/mL (≈ 43.6 µM) in test [2]; 32 µg/mL (≈ 43.6 µM) in test [4]; 32 µg/mL (≈ 43.6 µM) in test [5]; 8 µg/mL (≈ 10.9 µM) in test [6]. Further, the MBC90 amounted to 64 µg/mL (≈ 87.2 µM) in test [1], 64 µg/mL (≈ 87.2 µM) in test [2] and 32 µg/mL (≈ 43.6 µM) in test [6]. The MIC50 (in general, the lowest concentration that inhibits either 50% of growth or 50% of the strains tested, depending on the study) in test [1] was 4 µg/mL (≈ 5.45 µM); in test [2], 0.5 µg/mL (≈ 0.681 µM); in test [3] it was 16 µg/mL (≈ 21.8 µM); in test [4], 8 µg/mL (≈ 10.9 µM); in test [5] it was 4 µg/mL (≈ 5.45 µM); in test [6] it was 4 µg/mL (≈ 5.45 µM). The MIC90 (usually the lowest concentration that inhibits either 90% of growth or 90% of the strains tested, depending on the study) is 8 µg/mL (≈ 10.9 µM) in test [1]; 2 µg/mL (≈ 2.73 µM) in test [2]; 64 µg/mL (≈ 87.2 µM) in test [3]; 32 µg/mL (≈ 43.6 µM) in test [4]; 32 µg/mL (≈ 43.6 µM) in test [5]; 8 µg/mL (≈ 10.9 µM) in test [6].

Regarding `C[C@@H](O)[C@H]1C(=O)N2C(C(=O)O)=C(SCCNC=N)C[C@H]12` [IMIPENEM ANHYDROUS], the MBC50 in test [1] was 4 µg/mL (≈ 13.4 µM); in test [2], 8 µg/mL (≈ 26.7 µM); in test [3], 64 µg/mL (≈ 214 µM); in test [4] it was 16 µg/mL (≈ 53.4 µM); in test [5], 64 µg/mL (≈ 214 µM); in test [6], 1 µg/mL (≈ 3.34 µM). In addition, the MBC90 in test [1] was found to be 8 µg/mL (≈ 26.7 µM); in test [2], 16 µg/mL (≈ 53.4 µM); in test [3], 128 µg/mL (≈ 428 µM); in test [4], 64 µg/mL (≈ 214 µM); in test [5] it was 256 µg/mL (≈ 855 µM); in test [6], 4 µg/mL (≈ 13.4 µM). Moreover, the MIC50 in test [1] is 0.5 µg/mL (≈ 1.67 µM); in test [2], 0.25 µg/mL (≈ 0.835 µM); in test [3], 16 µg/mL (≈ 53.4 µM); in test [4] it was 4 µg/mL (≈ 13.4 µM); in test [5] it was 16 µg/mL (≈ 53.4 µM); in test [6] it was 0.5 µg/mL (≈ 1.67 µM). The MIC90 was 2 µg/mL (≈ 6.68 µM) in test [1]; 1 µg/mL (≈ 3.34 µM) in test [2]; 64 µg/mL (≈ 214 µM) in test [3]; 16 µg/mL (≈ 53.4 µM) in test [4]; 128 µg/mL (≈ 428 µM) in test [5]; 1 µg/mL (≈ 3.34 µM) in test [6].

On to `CC(=O)NC[C@H]1CN(c2ccc(N3CCOCC3)c(F)c2)C(=O)O1` [LINEZOLID], for which the MBC50 in test [1] came to 1 µg/mL (≈ 2.96 µM); in test [2] it was 8 µg/mL (≈ 23.7 µM); in test [3], 4 µg/mL (≈ 11.9 µM); in test [4], 2 µg/mL (≈ 5.93 µM); in test [5], 0.5 µg/mL (≈ 1.48 µM); in test [6], 1 µg/mL (≈ 2.96 µM). Moreover, the MBC90 in test [1] came to 2 µg/mL (≈ 5.93 µM); in test [2], 16 µg/mL (≈ 47.4 µM); in test [4], 4 µg/mL (≈ 11.9 µM); in test [6] it was 2 µg/mL (≈ 5.93 µM). Besides, the MIC50 was 0.5 µg/mL (≈ 1.48 µM) in test [1]; 0.5 µg/mL (≈ 1.48 µM) in test [2]; 1 µg/mL (≈ 2.96 µM) in test [3]; 1 µg/mL (≈ 2.96 µM) in test [4]; 0.5 µg/mL (≈ 1.48 µM) in test [5]; 0.5 µg/mL (≈ 1.48 µM) in test [6]. In addition, the MIC90 in test [1] stood at 2 µg/mL (≈ 5.93 µM); in test [2] it was 1 µg/mL (≈ 2.96 µM); in test [3], 2 µg/mL (≈ 5.93 µM); in test [4], 2 µg/mL (≈ 5.93 µM); in test [5], 1 µg/mL (≈ 2.96 µM); in test [6] it was 1 µg/mL (≈ 2.96 µM).

On to `CN[C@H](CC(C)C)C(=O)N[C@H]1C(=O)N[C@@H](CC(N)=O)C(=O)N[C@H]2C(=O)N[C@H]3C(=O)N[C@H](C(=O)N[C@H](C(=O)O)c4cc(O)cc(O)c4-c4cc3ccc4O)[C@H](O)c3ccc(c(Cl)c3)Oc3cc2cc(c3O[C@@H]2O[C@H](CO)[C@@H](O)[C@H](O)[C@H]2O[C@H]2C[C@](C)(N)[C@H](O)[C@H](C)O2)Oc2ccc(cc2Cl)[C@H]1O` [VANCOMYCIN], for which the MBC50 in test [1] is 0.5 µg/mL (≈ 0.345 µM); in test [2], 8 µg/mL (≈ 5.52 µM); in test [3], 64 µg/mL (≈ 44.2 µM); in test [4], 2 µg/mL (≈ 1.38 µM); in test [5], 0.5 µg/mL (≈ 0.345 µM); in test [6], 1 µg/mL (≈ 0.69 µM). The MBC90 came out at 2 µg/mL (≈ 1.38 µM) in test [1]; 16 µg/mL (≈ 11 µM) in test [2]; 256 µg/mL (≈ 177 µM) in test [3]; 4 µg/mL (≈ 2.76 µM) in test [4]; 2 µg/mL (≈ 1.38 µM) in test [5]; 2 µg/mL (≈ 1.38 µM) in test [6]. The MIC50 is 0.5 µg/mL (≈ 0.345 µM) in test [1]; 0.5 µg/mL (≈ 0.345 µM) in test [2]; 32 µg/mL (≈ 22.1 µM) in test [3]; 1 µg/mL (≈ 0.69 µM) in test [4]; 0.5 µg/mL (≈ 0.345 µM) in test [5]; 0.5 µg/mL (≈ 0.345 µM) in test [6]. Moreover, the MIC90 stood at 1 µg/mL (≈ 0.69 µM) in test [1]; 1 µg/mL (≈ 0.69 µM) in test [2]; 64 µg/mL (≈ 44.2 µM) in test [3]; 2 µg/mL (≈ 1.38 µM) in test [4]; 2 µg/mL (≈ 1.38 µM) in test [5]; 1 µg/mL (≈ 0.69 µM) in test [6].
